According to patent publication US20040013730A1, “Non-hormonal vaginal contraceptive” (priority 2003, published 2004):

How the values were obtained:
human cervical mucus = test: Cervical mucus score (WHO): viscosity, ferning, spinnbarkeit, cellularity, pH; conditions: for TOTAL cervical mucus score: pH not included
human sperm = test: Efficacy of metal salts, albumin and dextran on motility of human sperm in vitro; conditions: for concentration at which spermiostatic (motility of sperm arrested): human sperm in vitro
[1] = ascorbic acid 0.31%, fourth sample (undated)
[2] = ascorbic acid 0.31%, sample Jun. 22, 2000
[3] = ascorbic acid 0.31%, sample Jun. 23, 2000
[4] = ascorbic acid 0.31%, third sample (undated)
[5] = ascorbic acid 0.63%, fourth sample (undated)
[6] = ascorbic acid 0.63%, sample Jun. 22, 2000
[7] = ascorbic acid 0.63%, sample Jun. 23, 2000
[8] = ascorbic acid 0.63%, third sample (undated)
[9] = ascorbic acid 1%, fourth sample (undated)
[10] = ascorbic acid 1%, sample Jun. 22, 2000
[11] = ascorbic acid 1%, sample Jun. 23, 2000
[12] = ascorbic acid 1%, third sample (undated)
[13] = ascorbic acid 1.25%, fourth sample (undated)
[14] = ascorbic acid 1.25%, sample Jun. 22, 2000
[15] = ascorbic acid 1.25%, sample Jun. 23, 2000
[16] = ascorbic acid 1.25%, third sample (undated)
[17] = ascorbic acid 2.50%, fourth sample (undated)
[18] = ascorbic acid 2.50%, sample Jun. 22, 2000
[19] = ascorbic acid 2.50%, sample Jun. 23, 2000
[20] = ascorbic acid 2.50%, third sample (undated)
[21] = ascorbic acid 5%, fourth sample (undated)
[22] = ascorbic acid 5%, sample Jun. 22, 2000
[23] = ascorbic acid 5%, sample Jun. 23, 2000
[24] = ascorbic acid 5%, third sample (undated)
[25] = ascorbic acid 10%, fourth sample (undated)
[26] = ascorbic acid 10%, sample Jun. 22, 2000
[27] = ascorbic acid 10%, sample Jun. 23, 2000
[28] = ascorbic acid 10%, third sample (undated)

Compound: O=C1O[C@H]([C@@H](O)CO)C(O)=C1O [ascorbic acid, L-ascorbic acid]
- overall viscosity of the mucus (human cervical mucus; L-ascorbic acid from 0.31% to a range of 1-2.5%): increased in direct relationship with increasing concentrations
- Cellularity (cervical mucus score) (human cervical mucus; [1]): 0
- Ferning (cervical mucus score) (human cervical mucus; [1]): 0
- Spinnbarkiet (cervical mucus score) (human cervical mucus; [1]): 1 ± .35
- Viscosity (cervical mucus score) (human cervical mucus; [1]): 2 ± .79
- TOTAL cervical mucus score (human cervical mucus; [1]): 3.2
- Cellularity (cervical mucus score) (human cervical mucus; [2]): 2 ± .86
- Ferning (cervical mucus score) (human cervical mucus; [2]): 2 ± .86
- Spinnbarkiet (cervical mucus score) (human cervical mucus; [2]): 0 (less than 1 cm)
- Viscosity (cervical mucus score) (human cervical mucus; [2]): 3 ± .79
- TOTAL cervical mucus score (human cervical mucus; [2]): 7.3
- Cellularity (cervical mucus score) (human cervical mucus; [3]): 2 ± .58
- Ferning (cervical mucus score) (human cervical mucus; [3]): 0
- Spinnbarkeit (cervical mucus score) (human cervical mucus; [3]): 1 ± .35
- Viscosity (cervical mucus score) (human cervical mucus; [3]): 3 ± .79
- TOTAL cervical mucus score (human cervical mucus; [3]): 6.2
- Cellularity (cervical mucus score) (human cervical mucus; [4]): 1 ± .58
- Ferning (cervical mucus score) (human cervical mucus; [4]): 0
- Spinnbarkeit (cervical mucus score) (human cervical mucus; [4]): 0 (less than 1 cm)
- Viscosity (cervical mucus score) (human cervical mucus; [4]): 2 ± .79
- TOTAL cervical mucus score (human cervical mucus; [4]): 3.15
- Cellularity (cervical mucus score) (human cervical mucus; [5]): 0
- Ferning (cervical mucus score) (human cervical mucus; [5]): 3 ± .86
- Spinnbarkiet (cervical mucus score) (human cervical mucus; [5]): 1 ± .49
- Viscosity (cervical mucus score) (human cervical mucus; [5]): 3 ± .81
- TOTAL cervical mucus score (human cervical mucus; [5]): 7.2
- Cellularity (cervical mucus score) (human cervical mucus; [6]): 0
- Ferning (cervical mucus score) (human cervical mucus; [6]): 0
- Spinnbarkiet (cervical mucus score) (human cervical mucus; [6]): 1 ± .49
- Viscosity (cervical mucus score) (human cervical mucus; [6]): 1 ± .81
- TOTAL cervical mucus score (human cervical mucus; [6]): 2.3
- Cellularity (cervical mucus score) (human cervical mucus; [7]): 0
- Ferning (cervical mucus score) (human cervical mucus; [7]): 0
- Spinnbarkeit (cervical mucus score) (human cervical mucus; [7]): 1 ± .49
- Viscosity (cervical mucus score) (human cervical mucus; [7]): 2 ± .81
- TOTAL cervical mucus score (human cervical mucus; [7]): 3.2
- Cellularity (cervical mucus score) (human cervical mucus; [8]): 1 ± .61
- Ferning (cervical mucus score) (human cervical mucus; [8]): 0
- Spinnbarkeit (cervical mucus score) (human cervical mucus; [8]): 1 ± .49
- Viscosity (cervical mucus score) (human cervical mucus; [8]): 1 ± .81
- TOTAL cervical mucus score (human cervical mucus; [8]): 3.15
- Cellularity (cervical mucus score) (human cervical mucus; [9]): 0
- Ferning (cervical mucus score) (human cervical mucus; [9]): 3 ± .82
- Spinnbarkiet (cervical mucus score) (human cervical mucus; [9]): 1 ± .51
- Viscosity (cervical mucus score) (human cervical mucus; [9]): 2 ± .75
- TOTAL cervical mucus score (human cervical mucus; [9]): 6.2
- Cellularity (cervical mucus score) (human cervical mucus; [10]): 2 ± .82
- Ferning (cervical mucus score) (human cervical mucus; [10]): 2 ± .82
- Spinnbarkiet (cervical mucus score) (human cervical mucus; [10]): 1 ± .51
- Viscosity (cervical mucus score) (human cervical mucus; [10]): 1 ± .75
- TOTAL cervical mucus score (human cervical mucus; [10]): 6.3
- Cellularity (cervical mucus score) (human cervical mucus; [11]): 0
- Ferning (cervical mucus score) (human cervical mucus; [11]): 0
- Spinnbarkeit (cervical mucus score) (human cervical mucus; [11]): 1 ± .51
- Viscosity (cervical mucus score) (human cervical mucus; [11]): 2 ± .75
- TOTAL cervical mucus score (human cervical mucus; [11]): 3.2
- Cellularity (cervical mucus score) (human cervical mucus; [12]): 0
- Ferning (cervical mucus score) (human cervical mucus; [12]): 0
- Spinnbarkeit (cervical mucus score) (human cervical mucus; [12]): 1 ± .51
- Viscosity (cervical mucus score) (human cervical mucus; [12]): 2 ± .75
- TOTAL cervical mucus score (human cervical mucus; [12]): 3.15
- Cellularity (cervical mucus score) (human cervical mucus; [13]): 1 ± .53
- Ferning (cervical mucus score) (human cervical mucus; [13]): 2 ± 1.13
- Spinnbarkiet (cervical mucus score) (human cervical mucus; [13]): 1 ± 51
- Viscosity (cervical mucus score) (human cervical mucus; [13]): 3 ± .95
- TOTAL cervical mucus score (human cervical mucus; [13]): 7.2
- Cellularity (cervical mucus score) (human cervical mucus; [14]): 0
- Ferning (cervical mucus score) (human cervical mucus; [14]): 0
- Spinnbarkiet (cervical mucus score) (human cervical mucus; [14]): 1 ± .51
- Viscosity (cervical mucus score) (human cervical mucus; [14]): 1 ± .95
- TOTAL cervical mucus score (human cervical mucus; [14]): 2.3
- Cellularity (cervical mucus score) (human cervical mucus; [15]): 0
- Ferning (cervical mucus score) (human cervical mucus; [15]): 0
- Spinnbarkeit (cervical mucus score) (human cervical mucus; [15]): 1 ± .51
- Viscosity (cervical mucus score) (human cervical mucus; [15]): 3 ± .95
- TOTAL cervical mucus score (human cervical mucus; [15]): 4.2
- Cellularity (cervical mucus score) (human cervical mucus; [16]): 1 ± .53
- Ferning (cervical mucus score) (human cervical mucus; [16]): 0
- Spinnbarkeit (cervical mucus score) (human cervical mucus; [16]): 0 (less than 1 cm)
- Viscosity (cervical mucus score) (human cervical mucus; [16]): 1 ± .95
- TOTAL cervical mucus score (human cervical mucus; [16]): 2.15
- Cellularity (cervical mucus score) (human cervical mucus; [17]): 1 ± .49
- Ferning (cervical mucus score) (human cervical mucus; [17]): 1 ± .82
- Spinnbarkiet (cervical mucus score) (human cervical mucus; [17]): 1 ± .14
- Viscosity (cervical mucus score) (human cervical mucus; [17]): 2 ± .61
- TOTAL cervical mucus score (human cervical mucus; [17]): 5.2
- Cellularity (cervical mucus score) (human cervical mucus; [18]): 0
- Ferning (cervical mucus score) (human cervical mucus; [18]): 0
- Spinnbarkiet (cervical mucus score) (human cervical mucus; [18]): 1 ± .14
- Viscosity (cervical mucus score) (human cervical mucus; [18]): 2 ± .61
- TOTAL cervical mucus score (human cervical mucus; [18]): 3.3
- Cellularity (cervical mucus score) (human cervical mucus; [19]): 1 ± .49
- Ferning (cervical mucus score) (human cervical mucus; [19]): 0
- Spinnbarkeit (cervical mucus score) (human cervical mucus; [19]): 1 ± .14
- Viscosity (cervical mucus score) (human cervical mucus; [19]): 0
- TOTAL cervical mucus score (human cervical mucus; [19]): 2.2
- Cellularity (cervical mucus score) (human cervical mucus; [20]): 1 ± .49
- Ferning (cervical mucus score) (human cervical mucus; [20]): 0
- Spinnbarkeit (cervical mucus score) (human cervical mucus; [20]): 0 (less than 1 cm)
- Viscosity (cervical mucus score) (human cervical mucus; [20]): 1 ± .61
- TOTAL cervical mucus score (human cervical mucus; [20]): 2.15
- Cellularity (cervical mucus score) (human cervical mucus; [21]): 1 ± .66
- Ferning (cervical mucus score) (human cervical mucus; [21]): 0
- Spinnbarkiet (cervical mucus score) (human cervical mucus; [21]): 1 ± .35
- Viscosity (cervical mucus score) (human cervical mucus; [21]): 2 ± .52
- TOTAL cervical mucus score (human cervical mucus; [21]): 4.2
- Cellularity (cervical mucus score) (human cervical mucus; [22]): 0
- Ferning (cervical mucus score) (human cervical mucus; [22]): 0
- Spinnbarkiet (cervical mucus score) (human cervical mucus; [22]): 1 ± .35
- Viscosity (cervical mucus score) (human cervical mucus; [22]): 2 ± .52
- TOTAL cervical mucus score (human cervical mucus; [22]): 3.3
- Cellularity (cervical mucus score) (human cervical mucus; [23]): 0
- Ferning (cervical mucus score) (human cervical mucus; [23]): 0
- Spinnbarkeit (cervical mucus score) (human cervical mucus; [23]): 0 (less than 1 cm)
- Viscosity (cervical mucus score) (human cervical mucus; [23]): 2 ± .52
- TOTAL cervical mucus score (human cervical mucus; [23]): 2.2
- Cellularity (cervical mucus score) (human cervical mucus; [24]): 0
- Ferning (cervical mucus score) (human cervical mucus; [24]): 0
- Spinnbarkeit (cervical mucus score) (human cervical mucus; [24]): 1 ± .35
- Viscosity (cervical mucus score) (human cervical mucus; [24]): 2 ± .25
- TOTAL cervical mucus score (human cervical mucus; [24]): 2.15
- Cellularity (cervical mucus score) (human cervical mucus; [25]): 0
- Ferning (cervical mucus score) (human cervical mucus; [25]): 0
- Spinnbarkiet (cervical mucus score) (human cervical mucus; [25]): 0 (less than 1 cm)
- Viscosity (cervical mucus score) (human cervical mucus; [25]): 0
- TOTAL cervical mucus score (human cervical mucus; [25]): 0.2
- Cellularity (cervical mucus score) (human cervical mucus; [26]): 1 ± .53
- Ferning (cervical mucus score) (human cervical mucus; [26]): 1 ± .53
- Spinnbarkiet (cervical mucus score) (human cervical mucus; [26]): 1 ± .26
- Viscosity (cervical mucus score) (human cervical mucus; [26]): 1 ± .69
- TOTAL cervical mucus score (human cervical mucus; [26]): 4.3
- Cellularity (cervical mucus score) (human cervical mucus; [27]): 1 ± .51
- Ferning (cervical mucus score) (human cervical mucus; [27]): 1 ± .53
- Spinnbarkeit (cervical mucus score) (human cervical mucus; [27]): 1 ± .26
- Viscosity (cervical mucus score) (human cervical mucus; [27]): 2 ± .69
- TOTAL cervical mucus score (human cervical mucus; [27]): 5.2
- Cellularity (cervical mucus score) (human cervical mucus; [28]): 1 ± .51
- Ferning (cervical mucus score) (human cervical mucus; [28]): 0
- Spinnbarkeit (cervical mucus score) (human cervical mucus; [28]): 1 ± .26
- Viscosity (cervical mucus score) (human cervical mucus; [28]): 1 ± .69
- TOTAL cervical mucus score (human cervical mucus; [28]): 3.15

Compound: [Ca+2].[Cl-].[Cl-] [calcium chloride]
- concentration at which spermiostatic (motility of sperm arrested) (human sperm): 25 mM

Compound: O=S(=O)([O-])[O-].[Cu+2] [copper sulfate]
- immobilization of sperm (human sperm; 25 mM solution): 93.3%
- immobilization of sperm (human sperm; 37.5 mM solution): completely immobilized all the sperm
- additional spermiostatic effect (human sperm; 2.5% dextran added to 6.5-mM copper sulfate solution): no additional spermiostatic effect
- concentration at which spermiostatic (motility of sperm arrested) (human sperm): 6.25 mM

Compound: [Cl-].[Cl-].[Mg+2] [magnesium chloride]
- concentration at which spermiostatic (motility of sperm arrested) (human sperm): 35 mM

Compound: albumin
- sperm motility (human sperm; 10% albumin): decreased sperm motility almost close to that of 12.5 mM concentration of ferrous gluconate
- sperm completely immobilized (human sperm; 20% albumin): ~97%
- sperm completely immobilized (human sperm; 40% albumin): ~97%
- spermiostatic effects (human sperm; lower concentrations of albumin and dextran): not significant

Compound: dihydrate ferrous gluconate [dihydrate form of ferrous gluconate]
- onset of spermiostatic effect (human sperm; dihydrate form of ferrous gluconate): immediate

Compound: ferrous gluconate
- immobilization of sperm (human sperm; 25 mM solution): 97.4%
- immobilization of sperm (human sperm; 37.5 mM solution): completely immobilized all the sperm
- additional spermiostatic effect (human sperm; 2.5% dextran added to 12.5-mM ferrous gluconate solution): no additional spermiostatic effect
- enhancement of the spermiostatic effect (human sperm; 2.5% dextran and 5% albumin added to 12.5 mM ferrous gluconate): no enhancement of the spermiostatic effect
- concentration at which spermiostatic (motility of sperm arrested) (human sperm): 12.5 mM

Compound: ferrous sulfate
- concentration at which spermiostatic (motility of sperm arrested) (human sperm): 10 mM
